US10383848B2, “Indole-based therapeutics” (Creighton University, priority 2016, dated 2019)
Converted amounts (≈) assume the structure as drawn. Where two headings read alike, the source gives them in different places.

How the values were obtained:
M. abscessus 103 [1] = assay: MIC/MBC by microbroth dilution (MH or 7H9 broth); assay type: cell-based, M. abscessus subsp. bolletii; conditions: Mycobacteroides abscessus, 103; for MBC: 7H9 broth, read-out: MBC99 M. abscessus subsp. bolletii 103
M. abscessus 1513 = assay: MIC/MBC by microbroth dilution (MH or 7H9 broth); assay type: cell-based, M. abscessus subsp. abscessus; conditions: Mycobacteroides abscessus, 1513; for MBC: 7H9 broth, read-out: MBC99 M. abscessus subsp. abscessus 1513
M. abscessus 103 [2] = assay: Acute SCID mouse infection efficacy model; conditions: SCID mice i.v. infected with M. abscessus 103; compounds 300 mg/kg PO in 20% cyclodextrin, AMI 150 mg/kg SQ, once daily 8 days
M. abscessus ATCC 19977 = assay: MIC, resazurin microtiter assay; assay type: cell-based; conditions: Mueller Hinton II; for MIC: Mycobacteroides abscessus, ATCC19977, read-out: MIC M. abscessus ATCC 19977
M. abscessus DCI #21 = assay: MIC, resazurin microtiter assay; assay type: cell-based; conditions: Mueller Hinton II; for MIC: Mycobacteroides abscessus, read-out: MIC M. abscessus DCI #21
[3] = test system: M. massiliense CIP 108297; assay: MIC, resazurin microtiter assay; assay type: cell-based; conditions: for MIC: Mycobacteroides abscessus, CIP108297, Mueller Hinton II, read-out: MIC M. massiliense CIP 108297; for MIC M. massiliense CIP 108297: Mueller Hinton II
M. massiliense CRM 0019 = assay: MIC, resazurin microtiter assay; assay type: cell-based; conditions: for MIC: Mycobacteroides abscessus, CRM0019, Mueller Hinton II, read-out: MIC M. massiliense CRM 0019; for MIC M. massiliense CRM 0019: Mueller Hinton II
M. bolletii ATCC 14472 = assay: MIC, resazurin microtiter assay; assay type: cell-based; conditions: for MIC: Mycobacteroides abscessus, ATCC14472, Mueller Hinton II, read-out: MIC M. bolletii ATCC 14472; for MIC M. bolletii ATCC 14472: Mueller Hinton II
M. chelonae ATCC 35752 = assay: MIC, resazurin microtiter assay; assay type: cell-based; conditions: for MIC: Mycobacteroides chelonae, ATCC35752, Mueller Hinton II, read-out: MIC M. chelonae ATCC 35752; for MIC M. chelonae ATCC 35752: Mueller Hinton II
[4] = test system: M. tuberculosis H37Rv mc^26206; assay: microbe, parasite or virus in culture; assay type: cell-based; conditions: for MIC: Mycobacterium tuberculosis, H37RV, read-out: MIC M. tb H37 Rv (mc2-6206)
M. smegmatis mc^2155 = assay: MIC, resazurin microtiter assay; assay type: cell-based; conditions: for MIC: Mycolicibacterium smegmatis, MC^2155, 7H9-ADC-0.05% Tween 80, read-out: MIC M. smeg. mc^2155; for MIC M. smeg. mc^2155: 7H9-ADC-0.05% Tween 80
M. avium 104 = assay: MIC, resazurin microtiter assay; assay type: cell-based; conditions: Mueller Hinton II; for MIC: Mycobacterium avium, 104, read-out: MIC M. avium 104
M. intracellulare 1956 = assay: MIC, resazurin microtiter assay; assay type: cell-based; conditions: Mueller Hinton II; for MIC: read-out: MIC M. avium Intracellulare 1956
M. xenopi WT = assay: MIC, resazurin microtiter assay; assay type: cell-based; conditions: Mueller Hinton II; for MIC: Mycobacterium xenopi, read-out: MIC M. xenopi WT
P. aeruginosa PAO-1 = assay: MIC, resazurin microtiter assay; assay type: cell-based, Pseudomonas aeruginosa; conditions: Mueller Hinton II; for MIC: Pseudomonas aeruginosa, PAO1, read-out: MIC P. aeruginosa PAO-1
S. aureus ATCC25923 = assay: MIC, resazurin microtiter assay; assay type: cell-based; conditions: Staphylococcus aureus, ATCC25923; Mueller Hinton II; read-out: MIC S. aureus ATCC25923
mycobacteria = assay: organism not typed; assay type: cell-based; conditions: lowest concentration reducing CFU by 90% relative to the inoculum; strain not stated; read-out: MBC90
[5] = read-out: MIC M. abscessus 103, 7H9 Broth
[6] = read-out: MIC M. abscessus 103, MH Broth
[7] = read-out: MIC M. abscessus 1513, 7H9 Broth
[8] = read-out: MIC M. abscessus 1513, MH Broth

| Structure (SMILES) | MIC (M. abscessus ATCC 19977) | MIC (M. abscessus DCI #21) | MIC [3] | MIC (M. massiliense CRM 0019) | MIC (M. bolletii ATCC 14472) | MIC (M. chelonae ATCC 35752) | MIC [4] | MIC (M. smegmatis mc^2155) | MIC (M. avium 104) | MIC (M. intracellulare 1956) | MIC (M. xenopi WT) | further results |
| --- | --- | --- | --- | --- | --- | --- | --- | --- | --- | --- | --- | --- |
| NCC[C@H](O)C(=O)N[C@@H]1C[C@H](N)[C@@H](O[C@H]2O[C@H](CN)[C@@H](O)[C@H](O)[C@H]2O)[C@H](O)[C@H]1O[C@H]1O[C@H](CO)[C@@H](O)[C@H](N)[C@H]1O [amikacin, reference compound] |  |  |  |  |  |  |  |  |  |  |  | MBC (M. abscessus 103 [1]): > 64 µg/mL; MIC (M. abscessus 103 [1]; [5]): 8 µg/mL (≈ 13.7 µM); MIC (M. abscessus 103 [1]; [6]): 4 µg/mL (≈ 6.83 µM); MBC (M. abscessus 1513): > 64 µg/mL; MIC (M. abscessus 1513; [7]): > 64 µg/mL; MIC (M. abscessus 1513; [8]): > 64 µg/mL; log10 CFU liver counts on day 12 (M. abscessus 103 [2]): 4.03±0.62 log10 CFU; log10 CFU lung counts on day 12 (M. abscessus 103 [2]): 3.52±0.22 log10 CFU; log10 CFU spleen counts on day 12 (M. abscessus 103 [2]): 3.12±0.30 log10 CFU |
| Cc1cc(C)c2cc(C(=O)NC3CCCC3)[nH]c2c1 [Compound 28, N-cyclopentyl-4,6-dimethyl-1H-indole-2-carboxamide] | 4 µg/mL (≈ 15.6 µM) | 4 µg/mL (≈ 15.6 µM) | 8 µg/mL (≈ 31.2 µM) | 8 µg/mL (≈ 31.2 µM) | 2 µg/mL (≈ 7.8 µM) | 2 µg/mL (≈ 7.8 µM) | 2.5 µg/mL (≈ 9.75 µM) | 5 µg/mL (≈ 19.5 µM) | > 32 µg/mL | > 32 µg/mL | 8 to 16 µg/mL (≈ 31.2 to 62.4 µM) |  |
| O=C(NCC12CC3CC(CC(C3)C1)C2)c1cc2ccccc2[nH]1 [Compound 8, N-(1-(1-adamantyl)methyl)-1H-indole-2-carboxamide] | 2 µg/mL (≈ 6.48 µM) | 2 µg/mL (≈ 6.48 µM) | 2 µg/mL (≈ 6.48 µM) | > 32 µg/mL | 2 µg/mL (≈ 6.48 µM) | 1 µg/mL (≈ 3.24 µM) | > 5 µg/mL | > 20 µg/mL | > 32 µg/mL | > 32 µg/mL | 4 µg/mL (≈ 13 µM) |  |
| CCCCCCCNC(=O)c1cc2c(C)cc(C)cc2[nH]1 [Compound 32, N-heptyl-4,6-dimethyl-1H-indole-2-carboxamide] | > 32 µg/mL | > 32 µg/mL | > 32 µg/mL | > 32 µg/mL | 32 µg/mL (≈ 112 µM) | > 32 µg/mL | > 5 µg/mL | 5 µg/mL (≈ 17.5 µM) | > 32 µg/mL | > 32 µg/mL | > 32 µg/mL |  |
| CC[C@H]1OC(=O)[C@H](C)[C@@H](O[C@H]2C[C@@](C)(OC)[C@@H](O)[C@H](C)O2)[C@H](C)[C@@H](O[C@@H]2O[C@H](C)C[C@H](N(C)C)[C@H]2O)[C@](C)(OC)C[C@@H](C)C(=O)[C@H](C)[C@@H](O)[C@]1(C)O [clarithromycin, reference compound] |  |  |  |  |  |  |  |  |  |  |  | MBC (M. abscessus 103 [1]): > 64 µg/mL; MIC (M. abscessus 103 [1]; [5]): 16 µg/mL (≈ 21.4 µM); MIC (M. abscessus 103 [1]; [6]): 4 µg/mL (≈ 5.35 µM); MBC (M. abscessus 1513): > 64 µg/mL; MIC (M. abscessus 1513; [7]): > 64 µg/mL; MIC (M. abscessus 1513; [8]): > 64 µg/mL |
| O=C(NC1C2CC3CC(C2)CC1C3)c1cc2ccccc2[nH]1 (stereo not drawn) [Compound 9, N-(2-adamantyl)-1H-indole-2-carboxamide] | > 32 µg/mL | > 32 µg/mL | > 32 µg/mL | 32 µg/mL (≈ 109 µM) | 32 µg/mL (≈ 109 µM) | > 32 µg/mL | 0.39 µg/mL (≈ 1.32 µM) | > 25 µg/mL | > 32 µg/mL | > 32 µg/mL | 2 µg/mL (≈ 6.79 µM) |  |
| Cc1cc(C)c2cc(C(=O)NC3CCCCCC3)[nH]c2c1 [Compound 26, N-cycloheptyl-4,6-dimethyl-1H-indole-2-carboxamide] | ≤ 0.06 µg/mL | ≤ 0.06 µg/mL | ≤ 0.06 µg/mL | ≤ 0.06 µg/mL | ≤ 0.06 µg/mL | ≤ 0.06 µg/mL |  | 0.625 µg/mL (≈ 2.2 µM) | 2 µg/mL (≈ 7.03 µM) | 4 µg/mL (≈ 14.1 µM) | 0.06 to 0.12 µg/mL (≈ 0.211 to 0.422 µM) | MIC P. aeruginosa PAO-1 (P. aeruginosa PAO-1): inactive; MIC (P. aeruginosa PAO-1): > 160 µg/mL; MIC (S. aureus ATCC25923): > 160 µg/mL; MBC (mycobacteria): 0.015 µg/mL (≈ 0.0527 µM) |
| CC1CCC(NC(=O)c2cc3ccccc3[nH]2)CC1 (stereo not drawn) [Compound 15] |  |  |  |  |  |  |  |  | > 32 µg/mL | > 32 µg/mL | 16 µg/mL (≈ 62.4 µM) | MIC M. abscessus ATCC 19977 (M. abscessus ATCC 19977): >32 µg/mL; MIC M. abscessus DCI #21 (M. abscessus DCI #21): >32 µg/mL; MIC M. massiliense CIP 108297 [3]: 16 µg/mL (≈ 62.4 µM); MIC M. massiliense CRM 0019 (M. massiliense CRM 0019): 16 µg/mL (≈ 62.4 µM); MIC M. bolletii ATCC 14472 (M. bolletii ATCC 14472): 16 µg/mL (≈ 62.4 µM); MIC M. chelonae ATCC 35752 (M. chelonae ATCC 35752): 16 µg/mL (≈ 62.4 µM); MIC M. tb H37 Rv (mc2-6206) [4]: 5 µg/mL (≈ 19.5 µM); MIC M. smeg. mc^2155 (M. smegmatis mc^2155): 12.5 µg/mL (≈ 48.8 µM) |
| Cc1cc(C)c2cc(C(=O)NC3CCC(C)CC3)[nH]c2c1 (stereo not drawn) [Compound 30, N-4-methylcyclohexyl-4,6-dimethyl-1H-indole-2-carboxamide] |  |  |  |  |  |  |  |  |  |  |  | MIC M. abscessus ATCC 19977 (M. abscessus ATCC 19977): ≤0.06 µg/mL; MIC M. abscessus DCI #21 (M. abscessus DCI #21): ≤0.06 µg/mL; MIC M. massiliense CIP 108297 [3]: ≤0.06 µg/mL; MIC M. massiliense CRM 0019 (M. massiliense CRM 0019): ≤0.06 µg/mL; MIC M. bolletii ATCC 14472 (M. bolletii ATCC 14472): ≤0.06 µg/mL; MIC M. chelonae ATCC 35752 (M. chelonae ATCC 35752): ≤0.06 µg/mL; MIC M. smeg. mc^2155 (M. smegmatis mc^2155): >20 µg/mL; MIC M. avium 104 (M. avium 104): >32 µg/mL; MIC M. avium Intracellulare 1956 (M. intracellulare 1956): >32 µg/mL; MIC M. xenopi WT (M. xenopi WT): 0.5 to 1 µg/mL; MIC P. aeruginosa PAO-1 (P. aeruginosa PAO-1): inactive; MIC (P. aeruginosa PAO-1): > 160 µg/mL; MIC (S. aureus ATCC25923): > 160 µg/mL; MBC (mycobacteria): 0.03 µg/mL (≈ 0.105 µM) |
| CC(NC(=O)c1cc2ccccc2[nH]1)C12CC3CC(CC(C3)C1)C2 (stereo not drawn) [Compound 7, N-(1-(1-adamantyl)ethyl)-1H-indole-2-carboxamide] | 16 µg/mL (≈ 49.6 µM) | 16 µg/mL (≈ 49.6 µM) | 8 µg/mL (≈ 24.8 µM) | 8 µg/mL (≈ 24.8 µM) | 16 µg/mL (≈ 49.6 µM) | 2 µg/mL (≈ 6.2 µM) | > 5 µg/mL | > 20 µg/mL | > 32 µg/mL | 32 µg/mL (≈ 99.2 µM) | 8 µg/mL (≈ 24.8 µM) |  |
| CCC12CC3CC(C1)CC(NC(=O)c1cc4ccccc4[nH]1)(C3)C2 [Compound 6, N-(3-ethyl-1-adamantyl)-1H-indole-2-carboxamide] | > 32 µg/mL | > 32 µg/mL | > 32 µg/mL | > 32 µg/mL | > 32 µg/mL | > 32 µg/mL | 1.25 µg/mL (≈ 3.88 µM) | > 20 µg/mL | > 32 µg/mL | > 32 µg/mL | 1 to 2 µg/mL (≈ 3.1 to 6.2 µM) |  |
